In patent US7906620B2, “Tumor associated antigen, peptides thereof, and use of same as anti-tumor vaccines” (Yeda Research and Development Co. Ltd., priority 2002, dated 2011):

Key:
[1] = system: peptide loaded on labeled RMA-S/HHD; test: Immunogenicity of peptides in HHD mice: vaccination with peptide-loaded RMA-S/HHD/B7.1, cytolytic assay on peptide-loaded targets; format: in vivo; details: for Score: immunogenic score: ratio of specific lysis, specific peptide vs tyrosinase peptide loaded on RMA-S/HHD, average of two experiments, positive above 125%; for antigenic / immunogenic in HHD mice: mouse, in vivo
Procedure: FIG. 4 is a graph of the results of in vitro cytolytic assays. Seven peptides are immunogenic. Peptides were loaded on RMA-S/HHD/B7.1, washed and irradiated. HHD mice were immunized three times as described in the materials and methods section in Example 1. In vitro cytolytic assays were performed on the relevant peptide as target and on an irrelevant peptide. The score was deduced from the ratio of the specific lysis that were obtained. The positive peptides (above 125%) are marked by arrows. Peptides 1-6, 3-5 and 3-7 are derived from “Human 1-8D gene”.
(§1) Vaccination. HHD mice were immunized i.p. 3 times at 7-day intervals with 2×10^6 irradiated (5000 rad) tumor cells, or irradiated peptide-loaded RMA-S/HHD/B7.1 transfectants. Spleens were removed on day 10 after the last immunization, and splenocytes were restimulated in vitro, either with irradiated tumor cells or with one third of the lymphocytes pre-pulsed with 100 μM synthetic peptides in opti-MEM (Life Technologies) for 2 hr at 37° C., 5% CO2. Restimulated lymphocytes were cultured in RPMI-HEPES medium containing 10% FCS, 2 mM glutamine, combined antibiotics, 1 mM sodium pyruvate, 25 mM HEPES, 5×10^−5M PME and 1% NEAA for 5 days. Viable cells (effectors) were separated by Lympholyte-M (Cedarlane, Hornby, Canada) gradient, resuspended and admixed at different ratios with 5,000 ^35S-methionine-labeled target cells. Cytolytic assays were carried out as described previously in Carmon et al., 2000. Extracts of tumor peptides or normal colon peptides were prepared from a pool of 6 post-surgical colon carcinoma specimens as described before Carmon et al., 2000.
The antigenic peptides were tested for their specific immunogenicity in HHD mice. HHD mice were vaccinated with RMA-S/HHD/B7.1 cells loaded with each of the peptides (listed in Table 3), their spleens were removed, and resensitized in vitro with synthetic peptides for four days. On the fifth day, a cytolytic assay was performed on two targets, either the peptide itself loaded on labeled RMA-S/HHD or the tyrosinase peptide as a negative control. The ratio of specific lysis between specific and tyrosinase peptides was defined as “immunogenic score”. This experiment was repeated twice and the average score of each of the antigenic peptides is specified (Table 3 and FIG. 4). The horizontal line in FIG. 4 represents the limit of 95% significance as defined by assuming normal distribution of scores.

[2] = biological target: T1, HLA-A2.1 (Homo sapiens, UniProt P04439, D140Y/D185E/D98H/E176V/E277Q/G131W/G231S/I119V/I121R/I166T/I218V/L300P/L318F/N151K/N90K/P208A/P217A/Q86G/Q94H/R138H/R169H/T345S); test: T2 stabilization assay (peptide binding to HLA-A2.1); details: acid stripped T2 cells, peptide and recombinant β2m, BB7.2 mAb, FACS
T1 construct: endogenous in cells; host or cells: T2 cells (TAP-2-deficient lymphoblastoid line)
Procedure: T2 cells were acid stripped and incubated with the indicated peptide and recombinant β2m or with β2m alone as a negative control. FIG. 5D is the tyrosinase peptide as the positive control. Cells were stained with BB7.2 mAb and analyzed by FACS. The number of positive cells above control level is indicated for each of the peptides.
(§2) Intrigued by this finding, the laboratory of the present inventors focused on the 1-8D peptides. Peptide binding to HLA-A2.1 was verified by a T2 stabilization assay (Firat et al., 1999). […] 1-8D peptides were next tested for induction of anti-HCT/HHD CTL responses by vaccinating HHD mice with the 1-8D peptides (Carmon et al., 2000).

[3] = system: HCT/HHD cells; test: Anti-HCT/HHD CTL response after vaccination of HHD mice with 1-8D peptides; format: in vivo; details: for lysis of HCT/HHD by peptide-induced CTL: HHD mice immunized with peptide loaded on RMA-S/HHD/B7.1; for ranking as vaccine against HCT/HHD (in vitro cytolytic capacity): mouse, in vivo
Procedure: FIG. 6 is a graph showing that the 1-8D peptides can mount anti-HCT/HHD CTL responses. HHD mice were immunized with HCT/HHD/B7.1 and with peptide loaded on RMA-S/HHD/B7.1. In vitro cytolytic assays were performed using HCT/HHD cells as targets. The specific lysis at E:T in 50:1 ratio of a representative experiment out of three is shown.
as §1, §2

[4] = system: EL4/HHD/1-8D transfected cells; test: Lysis of 1-8D transfectants by CTL from peptide-immunized HHD mice; format: in vivo; details: high background lysis of EL4/HHD
Procedure: FIGS. 8A-8C are graphs that show 1-8D peptides 1-6 (FIG. 8A), 3-5 (FIG. 8B), and 3-7 (FIG. 8C) mount CTL responses that lyse 1-8D transfectants. Each peptide was loaded on RMA-S/HHD/B7.1 and used to immunize HHD mice. In vitro cytolytic assays were performed using EL4/HHD cells (open circles) and EL4/HHD/1-8D transfected cells (dark circles) as a target. The specific lysis of a representative experiment out of three is shown.
The 1-8D peptides are presented by HHD molecules on HCT/HHD cells. […] The plasmid was stably transfected into EL4 cells together with an HHD plasmid. HHD mice were immunized with the 1-8D peptides and a cytolytic assay was performed. The susceptibility of EL4/HHD/1-8D transfectant and the parental EL4/HHD cells to be lysed by anti-1-8D lymphocytes were compared. FIG. 8A-8C summarizes the results of these cytolytic experiments.

[5] = system: HCT/HHD cells; test: Adoptive transfer of anti-1-8D peptide lymphocytes to nude mice bearing HCT/HHD footpad tumors; format: in vivo, CD1-nude mice; details: for day from which retardation in tumor growth is significant (P<0.05): 10^7 restimulated lymphocytes i.v. three days post challenge, IL-2, one tailed student t-test
Procedure: FIG. 9 is a graph showing that nude mice were challenged in the foot pad with HCT/HHD cells. Lymphocyte from vaccinated HHD mice were transferred together with IL-2 to the tumor bearing mice and the growth of the tumor was monitored twice a week.
Adoptive transfer. CD1-nude mice were challenged in the footpad with 3×10^6 HCT/HHD cells. Three days later, 10^7 viable re-stimulated effector cells were injected i.v. to the tail vein. One thousand units of IL-2, was injected i.p. twice a day for 7 consecutive days post transfer. Tumor growth was monitored by measuring the diameter of the footpad with calipers. Mice were sacrificed when one of the tumor diameters reached 10 mm.
The anti-tumor efficacy of anti-1-8D peptide CTL was evaluated next. A transfer model, in which HCT/HHD cells were inoculated to the footpads of nude mice, was established. Three days post footpad challenge, in vitro restimulated HHD lymphocytes were transferred i.v. and the tumor growth was monitored.

[6] = system: peptide pulsed T2 cells; test: In vitro priming of human CTL precursors with 1-8D peptides; format: cell-based; details: for activating peripheral CTLp to lyse target cells in a peptide specific manner: PBMC of two normal donors, after 4 consecutive stimulations
Procedure: FIG. 10 are graphs showing PMBC from 4 donors checked for existence of CTL precursors. Left hand panel-peptide 1-6 stimulated CTLp. Middle Panel-peptide 3-5 stimulated CTLp. Right hand panel-peptide 3-7 stimulated CTLp. […] PBMC were supplemented with IL-7, and two days later IL-2 was added and renewed every three days. The rest of the stimulations were done every 7 days over peptide pulsed monocytes. Seven days after the third stimulation, lymphocytes were harvested and a cytolytic assay was performed using peptide pulsed (closed squares, closed circles, open triangles, X signs) or non-pulsed T2 cells (open circles) as targets. Closed squares represent CTLp from donor A, closed circles represent CTLp from donor B, open triangles represent CTLp from donor C, Xs represent CTLp from donor D, and open circles represent non-pulsed T2 cells.
In vitro priming of human CTL. Leukopheresis products of four healthy donors were obtained from Barzilai Medical Center (Ashkelon, Israel) according to Declaration of Helsinki Principles. PMBC were isolated by centrifugation on Ficoll-Plaque Plus gradients (Amersham, Sweden). The procedure was carried out according to Thurner et al., with minor modifications. Briefly, in vitro priming was done over autologous DC that were prepared from monocytes by IL-4 and GM-CSF treatment and matured with a IL-1β, IL-6, TNF-α and PGE2 cocktail. DC were pulsed with the synthetic peptides and PBMC were supplemented with IL-7. Two days later IL-2 was added and renewed every three days. The rest of the stimulations were done every 7 days over peptide pulsed monocytes. […]

[7] = system: EL4/HHD cells; test: Immunogenicity of PSGR-derived peptides in HHD mice (peptide-loaded dendritic cells); details: mouse, in vivo
Procedure: FIGS. 15A and 15B are graphs showing immunogenicty of PSGR-derived peptides in HHD mice. The mice were immunized i.v. three time with 1×10^6 syngeneic dendritic cells (DCs) loaded with either PSGR-1 or PSGR-6 peptides. Spleens were removed on day 10 after the last immunization, and splenocytes were re-stimulated in vitro by 100 μM PSGR-1 (FIG. 15A) or PSGR-6 (FIG. 15B) derived peptides in OPTIMEM for 2 h at 37° C., 5% CO2, followed by restimulation of lymphocytes for 4 more days in RPMI-HEPES. CTL assays were performed on day 5 with individual PSGR-1 or PSGR-6 derived peptides loaded on EL4/HHD cells as targets. Non-relevant PAP derived peptide-loaded EL4/HHD cells were used as negative controls. 100:1, 50:1, 25:1, 12.5:1 effector-to-target ratios are shown.
The immunogenicity of the peptides, namely their potential to induce T cell responses, was subsequently examined in an in vivo model. A strain of β2 microglobulin (β2m) HLA-A2.1 Monochain Transgenic, H-2D^b−/−Xβ2m^−/− double knockout mice (HHD mice) was used. Upon vaccination of these mice, a repertoire of human HLA-A2.1 restricted CTLs is produced. The lysis patterns of each of the individual peptides loaded on target cells were first evaluated following immunization with syngeneic dendritic cells pulsed with pools of 2-4 synthetic peptides derived from each examined protein.

[8] = system: peptide loaded on labeled RMA-S/HHD; details: F. A. Lemonnier, unpublished; cited from earlier work
[9] = healthy donor PBMC, peptide pulsed vs non-pulsed T2 targets

For “EMKEEQEV (listed as Homo sapiens) [Peptide 1-6, Human 1-8D gene from interferon inducible gene 20-28]”, the Score [1] was 181.3, the “antigenic / immunogenic in HHD mice” value [1] was “antigenic and immunogenic” and the “binding to HLA-A2.1 (stabilization of HLA-A2 on T2 cells)” value (shortened to “binding”) [2] was “stabilize HLA-A2 on T2 cells”. For the same sequence, the “lysis of HCT/HHD by peptide-induced CTL” value [3] was “lyse the human colon carcinoma line HCT-15-HHD”, the “ranking as vaccine against HCT/HHD (in vitro cytolytic capacity)” value (“ranking as vaccine against HCT/HHD” for short) [3] was “intermediate” and the “lysis of 1-8D transfectant compared to EL4/HHD cells” value (shortened to “lysis … compared to EL4/HHD cells”) [4] was “better lysed”. For the same sequence, the “day from which retardation in tumor growth is significant (P<0.05)” value (“day … in tumor growth is significant (P<0.05)” for short) [5] was 13 days, the “activating peripheral CTLp to lyse target cells in a peptide specific manner” value (“activating peripheral CTLp” below) [6] was “incompetent” and the “CTL activity of stimulated CTLp, donor A” value [6, 9] was “not”. The “CTL activity of stimulated CTLp, donor B” value [6, 9] was “low yet specific CTL activity” and the “CTL activity of stimulated CTLp, donor C” value [6, 9] was “not”.
In the case of “GLEKAHFWV (listed as Homo sapiens) [PSGR-6, PSGR start position 18]”, the “level of immunogenicity in HHD mice” value [7] is reported as “low”.
With “KCLNIWALI (listed as Homo sapiens) [Peptide 3-7, Human 1-8D and 1-8U genes from interferon inducible genes 103-111]” the Score [1] was 487.5, the “antigenic / immunogenic in HHD mice” value [1] was “antigenic and immunogenic” and the “binding” value [2] was “stabilize HLA-A2 on T2 cells”. The “lysis of HCT/HHD by peptide-induced CTL” value [3] was “lyse the human colon carcinoma line HCT-15-HHD”, the “ranking as vaccine against HCT/HHD” value [3] was “least effective” and the “lysis … compared to EL4/HHD cells” value [4] was “better lysed”. For the same sequence, the “day … in tumor growth is significant (P<0.05)” value [5] was 13 days, the “effect on in vivo growth of HCT/HHD” value ([5]; adoptive transfer, nude mice) was “least effective” and the “activating peripheral CTLp” value [6] was “highly efficient”. For the same sequence, the “CTL activity of stimulated CTLp, donor A” value [6, 9] was “high CTL activity”, the “CTL activity of stimulated CTLp, donor B” value [6, 9] was “high CTL activity” and the “CTL activity of stimulated CTLp, donor C” value [6, 9] was “low activity”. For the same sequence, the “CTL activity of stimulated CTLp, donor D” value [6, 9] was “low activity”.
In the case of “LILGIFMTI (listed as Homo sapiens) [Peptide 3-5, Human 1-8D gene from interferon inducible gene 110-118]”, the Score [1] is reported as 176.7, the “antigenic / immunogenic in HHD mice” value [1] is reported as “antigenic and immunogenic” and the “binding” value [2] is reported as “stabilize HLA-A2 on T2 cells”. The “lysis of HCT/HHD by peptide-induced CTL” value [3] was “lyse the human colon carcinoma line HCT-15-HHD”, the “ranking as vaccine against HCT/HHD” value [3] was “most effective” and the “lysis … compared to EL4/HHD cells” value [4] was “roughly equal”. The “day … in tumor growth is significant (P<0.05)” value [5] was 11 days, the “activating peripheral CTLp” value [6] was “incompetent” and the “CTL activity of stimulated CTLp, donor B” value [6, 9] was “low yet specific CTL activity”. For the same sequence, the “CTL activity of stimulated CTLp, donor C” value [6, 9] was “not and low yet specific CTL activity”.
For TLNAWVKVV [HIV derived peptide], the “immunogenicity in the HHD model” value [8] is listed as “weak immunogen”.
